Experimental findings from patent US7282504B2, “Kinase inhibitors” (Amgen Inc., priority 2000, dated 2007) are described below.

Type in all cases: biochemical
One test concerns the target T1, Akt3-1 (Homo sapiens, UniProt Q9Y243).
T1 construct: Kinases are expressed as either kinase domains or full-length constructs; made in house
Nature of the test: Kinase inhibition, 33P transfer to plate-bound substrate: Akt3-1. From the text:
(§1) The inhibitor compounds described herein are screened in the following manner. Kinases suitable for use in the following protocol to determine kinase activity of the compounds described herein include, but are not limited to: Lck, Lyn, Src, Fyn, Syk, Zap-70, Itk, Tec, Btk, EGFR, ErbB2, Kdr, Flt-1, Flt-3, Tek, c-Met, InsR, and AKT.
(§2) Kinases are expressed as either kinase domains or full-length constructs fused to glutathione S-transferase (GST) or polyHistidine tagged fusion proteins in either E. coli or Baculovirus-High Five expression systems. They are purified to near homogeneity by affinity chromatography essentially as previously described (Lehr et al., 1996; Gish et al., 1995). In some instances, kinases are co-expressed or mixed with purified or partially purified regulatory polypeptides prior to measurement of activity.
(§3) Kinase activity and inhibition are measured essentially by established protocols (Braunwalder et al., 1996). Briefly, The transfer of ^33PO4 from ATP to the synthetic substrates poly(Glu, Tyr) 4:1 or poly(Arg, Ser) 3:1 attached to the bioactive surface of microtiter plates serves as the basis to evaluate enzyme activity. After an incubation period, the amount of phosphate transferred is measured by first washing the plate with 0.5% phosphoric acid, adding liquid scintillant, and then counting in a liquid scintillation detector. The IC50 is determined by the concentration of compound that causes a 50% reduction in the amount of ^33P incorporated onto the substrate bound to the plate.

Another test concerns the target T2, Fyn-1 (Homo sapiens, UniProt P06241).
T2 construct: Kinases are expressed as either kinase domains or full-length constructs; made in house
The test is described as follows: Kinase inhibition, 33P transfer to plate-bound substrate: Fyn-1.
Text: as §1, §2, §3

Another test addresses T3, Itk-1 (Homo sapiens, UniProt Q08881).
T3 construct: Kinases are expressed as either kinase domains or full-length constructs; made in house
T3 sequence (Q08881 1-620): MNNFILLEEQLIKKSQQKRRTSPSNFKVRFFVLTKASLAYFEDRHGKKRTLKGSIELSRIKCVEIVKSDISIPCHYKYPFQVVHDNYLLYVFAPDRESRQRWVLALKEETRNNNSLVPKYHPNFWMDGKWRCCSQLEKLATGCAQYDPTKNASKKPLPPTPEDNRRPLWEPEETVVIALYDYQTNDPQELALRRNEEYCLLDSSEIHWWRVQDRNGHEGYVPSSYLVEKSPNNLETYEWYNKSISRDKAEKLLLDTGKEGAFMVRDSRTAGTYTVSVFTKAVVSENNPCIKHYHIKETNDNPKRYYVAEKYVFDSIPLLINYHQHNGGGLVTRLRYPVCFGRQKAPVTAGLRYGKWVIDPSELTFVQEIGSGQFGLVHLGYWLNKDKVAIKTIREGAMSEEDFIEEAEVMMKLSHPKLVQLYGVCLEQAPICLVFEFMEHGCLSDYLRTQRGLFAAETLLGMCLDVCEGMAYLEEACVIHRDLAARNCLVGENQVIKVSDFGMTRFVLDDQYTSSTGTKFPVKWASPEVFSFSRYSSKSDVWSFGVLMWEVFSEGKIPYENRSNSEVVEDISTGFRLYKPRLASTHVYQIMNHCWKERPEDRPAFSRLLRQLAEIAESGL
The test is described as follows: Kinase inhibition, 33P transfer to plate-bound substrate: Itk-1.
Text: as §1, §2, §3

The next test deals with T4, Src-1 (Homo sapiens, UniProt P12931).
T4 construct: Kinases are expressed as either kinase domains or full-length constructs; made in house
The test is described as follows: Kinase inhibition, 33P transfer to plate-bound substrate: Src-1.
Text: as §1, §2, §3

The next test addresses T5, Zap-1 (Homo sapiens, UniProt P43403).
T5 construct: Kinases are expressed as either kinase domains or full-length constructs; made in house
T5 sequence (P43403 1-619): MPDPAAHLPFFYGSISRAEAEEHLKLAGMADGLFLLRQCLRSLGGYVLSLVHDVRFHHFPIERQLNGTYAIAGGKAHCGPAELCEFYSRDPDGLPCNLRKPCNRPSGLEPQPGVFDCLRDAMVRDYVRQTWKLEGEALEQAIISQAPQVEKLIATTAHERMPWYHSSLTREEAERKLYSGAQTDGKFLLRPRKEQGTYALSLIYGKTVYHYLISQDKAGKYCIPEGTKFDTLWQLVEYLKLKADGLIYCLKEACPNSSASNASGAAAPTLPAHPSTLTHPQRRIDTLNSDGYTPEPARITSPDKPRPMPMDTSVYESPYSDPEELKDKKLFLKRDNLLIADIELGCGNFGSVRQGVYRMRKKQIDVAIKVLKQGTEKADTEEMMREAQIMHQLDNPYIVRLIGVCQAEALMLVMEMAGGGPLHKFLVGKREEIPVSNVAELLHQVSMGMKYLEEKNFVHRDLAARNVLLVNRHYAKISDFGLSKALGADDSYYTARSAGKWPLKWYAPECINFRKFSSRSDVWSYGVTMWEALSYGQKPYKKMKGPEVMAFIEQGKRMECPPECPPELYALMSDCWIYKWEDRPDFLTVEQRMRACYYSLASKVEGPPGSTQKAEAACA
Nature of the test: Kinase inhibition, 33P transfer to plate-bound substrate: Zap-1.
Text: as §1, §2, §3

A further test concerns the target T6, Tek-1 (Homo sapiens, UniProt Q02763).
T6 construct: Kinases are expressed as either kinase domains or full-length constructs; made in house
Nature of the test: Kinase inhibition, 33P transfer to plate-bound substrate: Tek-1.
Text: as §1, §2, §3

The target of another test is T7, Lck-1 (Homo sapiens, UniProt P06239).
T7 construct: Kinases are expressed as either kinase domains or full-length constructs; made in house
The test is described as follows: Kinase inhibition, 33P transfer to plate-bound substrate: Lck-1.
Text: as §1, §2, §3

The target of another test is T8, ErbB4-1 (Homo sapiens, UniProt Q15303).
T8 construct: Kinases are expressed as either kinase domains or full-length constructs; made in house
The test is described as follows: Kinase inhibition, 33P transfer to plate-bound substrate: ErbB4-1.
Text: as §1, §2, §3

For another test, the target named is T9, EGFR-1 (Homo sapiens, UniProt P00533).
T9 construct: Kinases are expressed as either kinase domains or full-length constructs; made in house
Nature of the test: Kinase inhibition, 33P transfer to plate-bound substrate: EGFR-1.
Text: as §1, §2, §3

A further test deals with T10, PDGFRB (Homo sapiens, UniProt P09619).
T10 construct: Kinases are expressed as either kinase domains or full-length constructs; made in house
Nature of the test: Kinase inhibition, 33P transfer to plate-bound substrate: PDGFRB.
Text: as §1, §2, §3

Another test addresses T11, FGFR1-1 (Homo sapiens, UniProt P11362).
T11 construct: Kinases are expressed as either kinase domains or full-length constructs; made in house
The test is described as follows: Kinase inhibition, 33P transfer to plate-bound substrate: FGFR1-1.
Text: as §1, §2, §3

The target in a further test is T12, Flt1-1 (Homo sapiens, UniProt P17948).
T12 construct: Kinases are expressed as either kinase domains or full-length constructs; made in house
The test is described as follows: Kinase inhibition, 33P transfer to plate-bound substrate: Flt1-1.
Text: as §1, §2, §3

A further test has as its target T13, IGFR-1 (Homo sapiens, UniProt P08069).
T13 construct: Kinases are expressed as either kinase domains or full-length constructs; made in house
The test is described as follows: Kinase inhibition, 33P transfer to plate-bound substrate: IGFR-1.
Text: as §1, §2, §3

Another test has as its target T14, Lyn-1 (Homo sapiens, UniProt P07948).
T14 construct: Kinases are expressed as either kinase domains or full-length constructs; made in house
Nature of the test: Kinase inhibition, 33P transfer to plate-bound substrate: Lyn-1.
Text: as §1, §2, §3

The next test addresses T15, Met-1 (Homo sapiens, UniProt P08581).
T15 construct: Kinases are expressed as either kinase domains or full-length constructs; made in house
The test is described as follows: Kinase inhibition, 33P transfer to plate-bound substrate: Met-1.
Text: as §1, §2, §3

A further test concerns the target T16, InsR-1 (Homo sapiens, UniProt P06213).
T16 construct: Kinases are expressed as either kinase domains or full-length constructs; made in house
Nature of the test: Kinase inhibition, 33P transfer to plate-bound substrate: InsR-1.
Text: as §1, §2, §3

The next test has as its target T17, ErbB2-1 (Homo sapiens, UniProt P04626).
T17 construct: Kinases are expressed as either kinase domains or full-length constructs; made in house
Nature of the test: Kinase inhibition, 33P transfer to plate-bound substrate: ErbB2-1.
Text: as §1, §2, §3

In a further test the target is T18, Ret-1 (Homo sapiens, UniProt P07949).
T18 construct: Kinases are expressed as either kinase domains or full-length constructs; made in house
The test is described as follows: Kinase inhibition, 33P transfer to plate-bound substrate: Ret-1.
Text: as §1, §2, §3

The target in the next test is T19, Lck-2 (Homo sapiens, UniProt P06239).
T19 construct: Kinases are expressed as either kinase domains or full-length constructs; made in house
The test is described as follows: Kinase inhibition, 33P transfer to plate-bound substrate: Lck-2.
Text: as §1, §2, §3

In the next test the target is T20, Hck-1 (Homo sapiens, UniProt P08631).
T20 construct: Kinases are expressed as either kinase domains or full-length constructs; made in house
The test is described as follows: Kinase inhibition, 33P transfer to plate-bound substrate: Hck-1.
Text: as §1, §2
Kinase activity and inhibition are measured essentially by established protocols (Braunwalder et al., 1996). Briefly, The transfer of ^33PO4 from ATP to the synthetic substrates poly(Glu, Tyr) 4:1 or poly(Arg, Ser) 3:1 attached to the bioactive surface of microtiter plates serves as the basis to evaluate enzyme activity. After an incubation period, the amount of phosphate transferred is measured by first washing the plate with 0.5% phosphoric acid, adding liquid scintillant, and then counting in a liquid scintillation detector. […]

Another test concerns the target T21, KDR-1 (Homo sapiens, UniProt P35968).
T21 construct: Kinases are expressed as either kinase domains or full-length constructs; made in house
Nature of the test: Kinase inhibition, 33P transfer to plate-bound substrate: KDR-1.
Text: as §1, §2, §3

A value given as a limit tells only on which side of the number the result lay.

T8 sequence (Q15303 26-1308): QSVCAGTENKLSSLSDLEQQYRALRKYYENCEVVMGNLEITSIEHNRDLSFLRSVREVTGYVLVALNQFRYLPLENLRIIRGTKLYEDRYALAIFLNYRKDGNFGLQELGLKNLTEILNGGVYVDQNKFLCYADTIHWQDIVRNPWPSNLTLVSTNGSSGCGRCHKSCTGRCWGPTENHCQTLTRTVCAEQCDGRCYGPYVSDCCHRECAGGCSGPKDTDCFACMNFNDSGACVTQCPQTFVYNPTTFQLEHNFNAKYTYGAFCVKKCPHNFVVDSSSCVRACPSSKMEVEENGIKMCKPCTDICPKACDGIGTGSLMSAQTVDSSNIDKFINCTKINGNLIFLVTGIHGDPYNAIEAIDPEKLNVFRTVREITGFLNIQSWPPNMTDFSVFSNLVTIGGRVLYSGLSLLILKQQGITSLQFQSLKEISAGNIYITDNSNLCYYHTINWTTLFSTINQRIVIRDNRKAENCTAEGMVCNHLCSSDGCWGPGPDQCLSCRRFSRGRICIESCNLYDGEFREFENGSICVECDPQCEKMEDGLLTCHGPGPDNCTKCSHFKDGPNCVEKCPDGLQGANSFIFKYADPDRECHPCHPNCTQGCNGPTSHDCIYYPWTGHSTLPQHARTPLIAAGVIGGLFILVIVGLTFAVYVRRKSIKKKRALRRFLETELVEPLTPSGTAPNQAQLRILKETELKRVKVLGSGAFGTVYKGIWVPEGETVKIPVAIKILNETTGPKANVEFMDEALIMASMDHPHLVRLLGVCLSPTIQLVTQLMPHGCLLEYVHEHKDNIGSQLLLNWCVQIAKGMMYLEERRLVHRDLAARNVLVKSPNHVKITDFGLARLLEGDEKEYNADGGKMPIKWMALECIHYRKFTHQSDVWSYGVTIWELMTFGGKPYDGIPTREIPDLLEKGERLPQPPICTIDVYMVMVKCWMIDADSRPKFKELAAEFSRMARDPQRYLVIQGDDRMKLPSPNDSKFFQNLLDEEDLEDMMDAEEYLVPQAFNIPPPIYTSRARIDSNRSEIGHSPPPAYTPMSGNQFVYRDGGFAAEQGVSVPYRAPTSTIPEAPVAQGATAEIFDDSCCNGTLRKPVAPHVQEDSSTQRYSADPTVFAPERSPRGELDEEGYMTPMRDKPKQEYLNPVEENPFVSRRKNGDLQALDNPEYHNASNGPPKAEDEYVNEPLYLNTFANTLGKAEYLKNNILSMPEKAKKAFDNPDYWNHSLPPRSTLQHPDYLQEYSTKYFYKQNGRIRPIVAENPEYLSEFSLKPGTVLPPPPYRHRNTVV
T1 sequence (Q9Y243 whole entry, the tested form may be a part): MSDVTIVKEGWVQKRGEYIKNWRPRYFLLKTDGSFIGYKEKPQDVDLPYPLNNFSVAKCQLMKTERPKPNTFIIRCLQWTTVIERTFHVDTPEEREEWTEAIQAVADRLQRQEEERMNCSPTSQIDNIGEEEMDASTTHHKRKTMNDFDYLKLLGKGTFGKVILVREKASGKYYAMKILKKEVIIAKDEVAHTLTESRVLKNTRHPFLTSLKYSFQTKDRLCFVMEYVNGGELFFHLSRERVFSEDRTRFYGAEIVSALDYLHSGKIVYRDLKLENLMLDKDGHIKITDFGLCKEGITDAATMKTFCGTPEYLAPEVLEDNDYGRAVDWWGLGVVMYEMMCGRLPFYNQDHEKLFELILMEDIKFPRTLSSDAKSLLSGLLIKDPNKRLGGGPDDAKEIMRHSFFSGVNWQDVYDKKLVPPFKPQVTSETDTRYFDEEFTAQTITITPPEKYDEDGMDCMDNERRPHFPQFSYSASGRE
T10 sequence (P09619 33-1106, species assumed): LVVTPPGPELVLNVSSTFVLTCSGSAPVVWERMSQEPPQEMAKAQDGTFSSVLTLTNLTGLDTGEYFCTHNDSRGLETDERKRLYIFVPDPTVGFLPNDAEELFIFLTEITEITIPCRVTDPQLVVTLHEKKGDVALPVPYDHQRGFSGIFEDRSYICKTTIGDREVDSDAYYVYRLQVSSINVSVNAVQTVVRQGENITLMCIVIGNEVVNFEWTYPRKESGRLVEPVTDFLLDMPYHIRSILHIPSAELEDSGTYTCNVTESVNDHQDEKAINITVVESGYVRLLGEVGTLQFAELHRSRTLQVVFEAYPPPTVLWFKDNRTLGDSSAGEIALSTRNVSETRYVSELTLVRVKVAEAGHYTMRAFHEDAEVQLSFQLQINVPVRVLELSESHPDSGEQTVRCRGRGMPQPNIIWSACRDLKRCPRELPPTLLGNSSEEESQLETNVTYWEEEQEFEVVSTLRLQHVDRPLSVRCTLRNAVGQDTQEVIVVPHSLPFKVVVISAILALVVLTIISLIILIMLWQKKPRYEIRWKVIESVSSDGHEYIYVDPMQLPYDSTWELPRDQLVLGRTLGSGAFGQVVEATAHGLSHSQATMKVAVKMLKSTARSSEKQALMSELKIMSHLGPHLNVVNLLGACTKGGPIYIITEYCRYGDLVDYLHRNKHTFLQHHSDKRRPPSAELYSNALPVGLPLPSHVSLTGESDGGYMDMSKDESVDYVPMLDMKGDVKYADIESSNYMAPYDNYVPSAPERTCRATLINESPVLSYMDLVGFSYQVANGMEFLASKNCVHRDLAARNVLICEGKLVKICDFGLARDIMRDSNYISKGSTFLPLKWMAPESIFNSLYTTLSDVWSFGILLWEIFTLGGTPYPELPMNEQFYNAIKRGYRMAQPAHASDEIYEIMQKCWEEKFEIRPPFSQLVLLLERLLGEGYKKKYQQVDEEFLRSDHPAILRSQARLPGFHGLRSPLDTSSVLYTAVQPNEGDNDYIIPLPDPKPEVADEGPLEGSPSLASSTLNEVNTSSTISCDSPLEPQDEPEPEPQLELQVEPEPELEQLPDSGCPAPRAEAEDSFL
T2 sequence (P06241 whole entry, the tested form may be a part): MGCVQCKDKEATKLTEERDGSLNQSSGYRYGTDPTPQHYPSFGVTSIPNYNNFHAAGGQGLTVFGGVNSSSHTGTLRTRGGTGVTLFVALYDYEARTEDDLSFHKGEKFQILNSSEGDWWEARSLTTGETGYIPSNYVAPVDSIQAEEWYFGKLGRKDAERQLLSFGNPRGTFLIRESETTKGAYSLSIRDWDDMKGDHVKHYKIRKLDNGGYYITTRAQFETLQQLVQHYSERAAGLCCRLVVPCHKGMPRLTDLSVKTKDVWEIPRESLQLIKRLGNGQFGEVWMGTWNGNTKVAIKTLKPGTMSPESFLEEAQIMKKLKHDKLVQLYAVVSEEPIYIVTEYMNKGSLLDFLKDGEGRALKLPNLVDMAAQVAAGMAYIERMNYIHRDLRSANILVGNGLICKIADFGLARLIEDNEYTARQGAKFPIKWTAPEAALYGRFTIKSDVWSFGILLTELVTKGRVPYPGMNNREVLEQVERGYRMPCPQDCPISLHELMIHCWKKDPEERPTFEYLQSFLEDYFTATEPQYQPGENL
T21 sequence (P35968 20-1356): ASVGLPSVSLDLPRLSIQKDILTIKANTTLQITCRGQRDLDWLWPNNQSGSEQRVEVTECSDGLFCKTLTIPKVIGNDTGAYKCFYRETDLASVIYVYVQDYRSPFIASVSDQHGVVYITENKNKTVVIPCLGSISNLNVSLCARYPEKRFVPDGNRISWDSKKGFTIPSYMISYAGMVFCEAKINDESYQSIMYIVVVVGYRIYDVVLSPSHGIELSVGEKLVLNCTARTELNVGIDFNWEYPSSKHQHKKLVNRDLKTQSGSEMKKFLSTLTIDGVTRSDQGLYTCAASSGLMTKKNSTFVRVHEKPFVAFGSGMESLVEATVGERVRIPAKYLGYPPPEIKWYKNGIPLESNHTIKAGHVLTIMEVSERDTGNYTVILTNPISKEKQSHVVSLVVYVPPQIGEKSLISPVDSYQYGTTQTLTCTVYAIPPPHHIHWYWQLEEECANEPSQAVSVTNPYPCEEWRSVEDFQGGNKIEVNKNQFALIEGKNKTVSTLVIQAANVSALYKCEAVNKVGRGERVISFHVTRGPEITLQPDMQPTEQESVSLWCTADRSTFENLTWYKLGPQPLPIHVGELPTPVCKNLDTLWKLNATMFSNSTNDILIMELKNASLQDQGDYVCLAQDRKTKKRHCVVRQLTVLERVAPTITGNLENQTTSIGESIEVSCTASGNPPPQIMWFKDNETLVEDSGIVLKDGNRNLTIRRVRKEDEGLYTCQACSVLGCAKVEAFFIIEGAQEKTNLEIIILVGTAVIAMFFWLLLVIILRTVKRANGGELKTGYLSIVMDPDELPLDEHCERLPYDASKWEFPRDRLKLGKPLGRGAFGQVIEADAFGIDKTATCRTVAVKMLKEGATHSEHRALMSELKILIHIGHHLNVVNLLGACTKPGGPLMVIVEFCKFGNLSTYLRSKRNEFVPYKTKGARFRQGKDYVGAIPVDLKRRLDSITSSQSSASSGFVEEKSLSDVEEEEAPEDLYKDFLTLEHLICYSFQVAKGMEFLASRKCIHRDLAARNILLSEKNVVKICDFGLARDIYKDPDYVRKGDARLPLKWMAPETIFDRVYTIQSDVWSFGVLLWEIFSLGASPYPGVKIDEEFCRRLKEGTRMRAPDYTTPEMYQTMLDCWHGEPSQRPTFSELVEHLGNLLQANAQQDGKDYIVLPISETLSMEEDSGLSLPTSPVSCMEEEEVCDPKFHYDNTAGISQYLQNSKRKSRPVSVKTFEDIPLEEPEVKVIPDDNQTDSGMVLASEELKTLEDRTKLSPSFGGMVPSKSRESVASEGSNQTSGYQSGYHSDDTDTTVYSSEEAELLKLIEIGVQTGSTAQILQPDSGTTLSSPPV

By IC50 is commonly meant the concentration at which inhibition is half-maximal. The low end stands for inhibition by little substance, the high end for a need for much substance. In the case of `COc1cc(Nc2nccc(-n3c(=O)[nH]c4ccccc43)n2)cc(OC)c1OC` [Compound 3], the IC50 against Akt3-1 is no less than 10 µM; against Fyn-1 it was 5 to 10 µM; against Itk-1, no less than 10 µM; on Src-1, 5 to 10 µM; against Zap-1, 1.5 to 5 µM; against Tek-1 it was 5 to 10 µM. Further, the IC50 was 1.5 to 5 µM at Lck-1; no less than 10 µM at ErbB4-1; no less than 10 µM on EGFR-1; less than 1.5 µM on PDGFRB; less than 1.5 µM at FGFR1-1; less than 1.5 µM against Flt1-1. Further, the IC50 at IGFR-1 was less than 1.5 µM; against Lyn-1, 1.5 to 5 µM; on Met-1, 1.5 to 5 µM; on InsR-1, 1.5 to 5 µM; at ErbB2-1 it was no less than 10 µM; against Ret-1, less than 1.5 µM. Besides, the IC50 against Lck-2 is 1.5 to 5 µM; at Hck-1 it was no less than 10 µM; at KDR-1, less than 1.5 µM.
With `COc1cc(Nc2nccc(-n3ccc4ccccc43)n2)cc(OC)c1OC` [Compound 31], the IC50 is no less than 10 µM against Akt3-1; less than 1.5 µM against Fyn-1; 1.5 to 5 µM at Itk-1; less than 1.5 µM on Src-1; no less than 10 µM at Zap-1; 5 to 10 µM at Tek-1. Moreover, the IC50 is less than 1.5 µM at Lck-1; 1.5 to 5 µM at ErbB4-1; no less than 10 µM on EGFR-1; less than 1.5 µM on PDGFRB; less than 1.5 µM on FGFR1-1; less than 1.5 µM against Flt1-1. For the same molecule, the IC50 at Lyn-1 was less than 1.5 µM; against Met-1, 1.5 to 5 µM; against Lck-2, less than 1.5 µM; against Hck-1, no less than 10 µM; against KDR-1, less than 1.5 µM.
In the case of `COc1cc(Nc2nccc(Nc3cc(C(C)(C)C)n[nH]3)n2)cc(OC)c1OC` [Compound 35], the IC50 on Akt3-1 was no less than 10 µM; at Fyn-1, 1.5 to 5 µM; against Itk-1, 1.5 to 5 µM; against Src-1 it was less than 1.5 µM; at Zap-1, no less than 10 µM; on Lck-1 it was less than 1.5 µM. The IC50 at ErbB4-1 was 5 to 10 µM; against EGFR-1 it was 5 to 10 µM; at PDGFRB, 1.5 to 5 µM; on FGFR1-1, 5 to 10 µM; against Flt1-1, 5 to 10 µM; against IGFR-1, less than 1.5 µM. Also, the IC50 was less than 1.5 µM on Lyn-1; less than 1.5 µM against Met-1; less than 1.5 µM against InsR-1; no less than 10 µM on ErbB2-1; 1.5 to 5 µM against Ret-1; less than 1.5 µM against Lck-2. At KDR-1, this molecule returned an IC50 of 1.5 to 5 µM.
With `COc1ccc(Nc2ccnc(Nc3ccc(OC)c(OC)c3)n2)cc1OC` [Compound 56], the IC50 against Akt3-1 was no less than 10 µM; at Fyn-1 it was 5 to 10 µM; at Itk-1, no less than 10 µM; at Src-1, 1.5 to 5 µM; at Zap-1, no less than 10 µM; at Lck-1, 5 to 10 µM. The IC50 was no less than 10 µM against EGFR-1; less than 1.5 µM at PDGFRB; 1.5 to 5 µM at FGFR1-1; 1.5 to 5 µM against Flt1-1; less than 1.5 µM at IGFR-1; no less than 10 µM at Met-1. Besides, the IC50 was no less than 10 µM against InsR-1; no less than 10 µM against ErbB2-1; 1.5 to 5 µM at Ret-1; less than 1.5 µM against Lck-2; less than 1.5 µM on KDR-1.
